Laboratory results from PMC8764084, “Pantothenate biosynthesis is critical for chronic infection by the neurotropic parasite Toxoplasma gondii” (Nature Communications, 2022).

Target: T1, PBAL (pantoate β-alanine ligase; Pan synthetase) (Toxoplasma gondii, UniProt S8EZ77)
T1 construct: gene TGME49_265870; native full-length enzyme in live tachyzoites, untagged; about 88 kDa; nuclear; compared with pbal-ko
Experiment: LC-MS isotope labelling of pantothenate in live parasites, RH versus pbal-ko
Assay type: cell-based
Settings: 0.8 mM pantoate with 0.8 mM 13C3/15N-beta-alanine, medium without Pan, 40 h, intact parasites in HFF

T1 sequence (S8EZ77 entry or part of it): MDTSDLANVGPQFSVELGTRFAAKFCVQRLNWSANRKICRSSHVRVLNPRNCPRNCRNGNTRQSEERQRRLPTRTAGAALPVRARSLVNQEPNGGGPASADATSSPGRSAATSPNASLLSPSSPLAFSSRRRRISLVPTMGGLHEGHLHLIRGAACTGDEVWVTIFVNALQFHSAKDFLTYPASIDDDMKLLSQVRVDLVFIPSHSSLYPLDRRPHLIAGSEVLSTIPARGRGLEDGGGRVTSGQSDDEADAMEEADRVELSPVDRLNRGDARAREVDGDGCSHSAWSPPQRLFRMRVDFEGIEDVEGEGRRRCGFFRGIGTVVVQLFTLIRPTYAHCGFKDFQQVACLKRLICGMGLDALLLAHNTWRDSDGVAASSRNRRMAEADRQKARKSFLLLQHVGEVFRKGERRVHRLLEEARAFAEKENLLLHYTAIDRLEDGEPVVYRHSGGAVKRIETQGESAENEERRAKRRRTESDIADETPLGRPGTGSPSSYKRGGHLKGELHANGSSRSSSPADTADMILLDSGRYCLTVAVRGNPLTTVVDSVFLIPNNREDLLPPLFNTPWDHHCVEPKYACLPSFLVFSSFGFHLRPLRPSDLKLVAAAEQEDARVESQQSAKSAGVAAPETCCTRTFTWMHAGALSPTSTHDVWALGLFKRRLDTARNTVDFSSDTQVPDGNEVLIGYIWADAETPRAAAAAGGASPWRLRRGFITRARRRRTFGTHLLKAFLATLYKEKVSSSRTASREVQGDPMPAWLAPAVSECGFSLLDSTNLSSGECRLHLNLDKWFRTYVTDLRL

Compound	LC-MS isotope labelling of pantothenate in live parasites, RH versus pbal-ko (labelled compound)	LC-MS isotope labelling of pantothenate in live parasites, RH versus pbal-ko
NCCC(=O)O [13C3/15N-β-Ala]	led to the formation of labeled Pan in all strains except pbal-ko	
CC(C)(CO)[C@@H](O)C(=O)O [pantoate]		led to the formation of labeled Pan in all strains except pbal-ko
